The target in series [1] is T1, GST-LXRβ ligand-binding domain (Homo sapiens, UniProt P55055).
T1 construct: amino acids 156-461; NP009052; made in house; host or cells: E. coli
T1 sequence (P55055 156-460 limits assumed): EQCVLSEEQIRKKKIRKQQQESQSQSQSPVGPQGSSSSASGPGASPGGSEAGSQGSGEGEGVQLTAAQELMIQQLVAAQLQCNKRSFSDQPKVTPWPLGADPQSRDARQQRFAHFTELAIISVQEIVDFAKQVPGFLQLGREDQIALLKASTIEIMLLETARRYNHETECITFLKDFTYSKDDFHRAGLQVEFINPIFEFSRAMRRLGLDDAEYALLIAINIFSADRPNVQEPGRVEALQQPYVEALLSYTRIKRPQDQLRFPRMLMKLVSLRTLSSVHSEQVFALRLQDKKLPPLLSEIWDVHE
As to the kind of experiment: TR-FRETβ activity assay (NCoA3 coactivator peptide recruitment). The format is biochemical. The following applies: 1 μM 24(S)-25-epoxycholesterol prestimulation. A digest of the protocol: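 Inverse-agonist format, with LXR prestimulated by 1 μM 24(S)-25-epoxycholesterol in pH 6.8 Tris/HCl, 240 mM KCl, BSA and Triton. Ten concentrations from 50 μM to 0.002 μM were equilibrated 1 h at 4° C with 76 nM GST-LXRβ LBD and 400 nM biotin-NCoA3 peptide. Peptide recruitment detected by 665/615 nm TR-FRET.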

For series [2], the target named is T2, LXRβ (Homo sapiens, UniProt P55055).
T2 construct: LXRβ (amino acids 156-461); expressed in transfected cells; host or cells: HEK293
T2 sequence (P55055 156-460): T1 sequence (P55055 156-460 limits assumed)
The series can be described thus: LXR Gal4 reporter transient transfection assay (mammalian two-hybrid, HEK293), LXRβ. The following applies: ligand-binding domain (LBD) of LXRβ, HEK293; read-out: LBD-M2H Gal4β. The format is cell-based. How it is done:
LXRα and LXRβ activity status was determined via detection of interaction with coactivator and corepressor proteins in mammalian two-hybrid experiments (M2H). For this, via transient transfection the full length (FL) proteins of LXRα (amino acids 1-447; NP005684; SEQ ID NO:1) or LXRβ-(amino acids 1-461; NP009052; SEQ ID NO:2) or the ligand-binding domains (LBD) of LXRα (amino acids 155-447 SEQ ID NO:3) or LXRβ (amino acids 156-461; SEQ ID NO:4) were expressed from pCMV-AD (Stratagene) as fusions to the transcriptional activation domain of NFkB. As cofactors, domains of either the steroid receptor coactivator 1 (SRC1; amino acids 552-887; SEQ ID NO:5) or of the corepressor NCoR (amino acids 1906-2312; NP006302; SEQ ID NO:6) were expressed as fusions to the DNA binding domain of the yeast transcription factor GAL4 (from pCMV-BD; Stratagene). Interaction was monitored via activation of a coexpressed Firefly Luciferase Reporter gene under control of a promoter containing repetitive GAL4 response elements (vector pFRLuc; Stratagene). Transfection efficiency was controlled via cotransfection of constitutively active pRL-CMV Renilla reniformis luciferase reporter (Promega). HEK293 cells were grown in minimum essential medium (MEM) with 2 mM L-glutamine and Earle's balanced salt solution supplemented with 8.3% fetal bovine serum, 0.1 mM non-essential amino acids, 1 mM sodium pyruvate, at 37° C. in 5% CO2. 3.5×10^4 cells/well were plated in 96-well cell culture plates in growth medium supplemented with 8.3% fetal bovine serum for 16-20 h to ˜90% confluency. For transfection, medium was taken off and LXR and cofactor expressing plasmids as well as the reporter plasmids are added in 30 μL OPTIMEM/well including polyethylene-imine (PEI) as vehicle. Typical amounts of plasmids transfected/well: pCMV-AD-LXR (5 ng), pCMV-BD-cofactor (5 ng), pFR-Luc (100 ng), pRL-CMV (0.5 ng). Compound stocks were prepared in DMSO, prediluted in MEM to a total volume of 120 μL, and added 4 h after addition of the transfection mixture (final vehicle concentration not exceeding 0.2%). Cells were incubated for additional 16 h, lysed for 10 min in 1×Passive Lysis Buffer (Promega) and Firefly and Renilla luciferase activities were measured sequentially in the same cell extract using buffers containing D-luciferine and coelenterazine, respectively. Measurements of luminescence were done in a BMG-luminometer.
The potencies of Compound 21/3 and its analog, Compound pre-6/3, against LXRα and LXRβ were evaluated in biochemical binding assays, cellular mammalian two-hybrid (M2H) interaction assays evaluating nuclear receptor co-repressor (NCOR) recruitment, and cellular reporter assays evaluating transcriptional activity (Table 5).

Series [3] addresses T3, LXRβ (Homo sapiens, UniProt P55055).
T3 sequence (P55055 1-460): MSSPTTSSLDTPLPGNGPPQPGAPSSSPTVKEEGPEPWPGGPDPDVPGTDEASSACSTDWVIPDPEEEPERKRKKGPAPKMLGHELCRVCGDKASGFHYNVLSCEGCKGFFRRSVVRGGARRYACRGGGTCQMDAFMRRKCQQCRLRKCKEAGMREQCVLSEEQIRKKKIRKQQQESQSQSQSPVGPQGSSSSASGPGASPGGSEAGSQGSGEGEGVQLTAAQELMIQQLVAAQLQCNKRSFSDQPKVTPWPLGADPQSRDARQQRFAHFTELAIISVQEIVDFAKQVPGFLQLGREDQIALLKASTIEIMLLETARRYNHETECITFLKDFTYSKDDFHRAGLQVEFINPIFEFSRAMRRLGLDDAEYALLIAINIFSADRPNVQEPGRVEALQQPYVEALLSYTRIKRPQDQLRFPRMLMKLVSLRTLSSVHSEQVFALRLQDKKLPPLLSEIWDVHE
Described as above. The format is cell-based. Details: LXRβ (amino acids 156-461); expressed in transfected cells; host or cells: HEK293. The following applies: full length (FL) LXRβ, HEK293; read-out: FL-M2H Gal4β. A digest of the protocol:
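Mammalian two-hybrid read-out of LXR–coactivator (SRC1) or corepressor (NCoR) interaction: firefly luciferase under GAL4 response elements, normalised via Renilla co-transfection. LXRα/β full-length or LBD fusions expressed transiently in HEK293; compounds (final DMSO ≤0.2%) given 4 h after transfection for 16 h before lysis.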

A short description of series [4]: Pharmacokinetics in mice after single oral dosing (blood/plasma and liver exposure). The format is in vivo. The following applies: for blood/plasma exposure (below LLOQ) / liver exposure (below LLOQ): 20 mg/kg single oral dose, time point 4 h, number is the LLOQ; for oral bioavailability: single oral dose. On the procedure: The pharmacokinetics of the compounds was assessed in mice after single dosing and oral administrations. Blood/plasma and liver exposure was measured via LC-MS.
The study design was as follows: • Animals: C57/bl6/J (Janvier) males • Diet: standard rodent chow • Dose: 20 mg/kg • Animal handling: animals were withdrawn from food at least 12 h before administration • Design: single dose oral administration, n=3 animals per group • Sacrifice: at stated time point (4, 12 or 24 h) after administration • Bioanalytics: LC-MS of liver and blood/plasma samples

Read-outs that look alike come from different tables or passages of the source.

Regarding `Cc1ccc(S(=O)(=O)n2c(-c3cccc(N4CC(C(=O)O)C4)c3)c(-c3ccsc3C#N)c3cc(F)c(F)cc32)cc1` [3/42], the EC50 was 1000 to 10000 nM in series [1], below 100 nM on LXRβ [2] and below 100 nM at LXRβ [3].
Take `Cc1ccc(S(=O)(=O)n2c(-c3cccc(N4CC(C(=O)O)C4)c3)c(-c3ccsc3C#N)c3cc(C)ccc32)cc1` [3/46]: the EC50 is 100 to 1000 nM in series [1], below 100 nM on LXRβ [2] and below 100 nM on LXRβ [3].
As for `Cc1cc(C)c(S(=O)(=O)N(Cc2ccc(-c3cccc(S(C)(=O)=O)c3)cc2)Cc2ccc(C(F)(F)F)o2)c(C)c1` [GSK2033, reference compound], in series [4], the “blood/plasma exposure (below LLOQ)” value was “(14.4 ng/mL)”, the “liver exposure (below LLOQ)” value is “(9.6 ng/mL)” and the oral bioavailability entry was “not orally bioavailable”.
`CCOC(=O)c1ccc(CN(Cc2ccc(-c3cccc(S(C)(=O)=O)c3)cc2)S(=O)(=O)c2c(C)cc(C)cc2C)o1` [SR9238, reference compound]: in series [4], the “blood/plasma exposure (below LLOQ)” value is given as “below LLOQ”, the “liver exposure (below LLOQ)” value was “below LLOQ” and the oral bioavailability result was “not orally bioavailable”.
Turning to `Cc1ccc(S(=O)(=O)n2c(-c3cccc(/C=C/C(=O)O)c3)c(-c3ccsc3C#N)c3ccccc32)cc1` [3/18], the EC50 was 1000 to 10000 nM in series [1] and below 100 nM on LXRβ [2].
As to `Cc1ccc(S(=O)(=O)n2c(-c3ccc(CC(C)(C)C(=O)O)s3)c(-c3ccsc3C#N)c3ccccc32)cc1` [3/16], the values for the EC50 (in series [1]; at LXRβ [2]) were 1000 to 10000 nM and 100 to 1000 nM, respectively.
For `Cc1ccc(S(=O)(=O)n2c(-c3cccc(C4CC4C(=O)O)c3)c(-c3ccc(F)cc3C#N)c3ccccc32)cc1` (stereo not drawn) [30/15], the EC50 in series [1] lay within 1000 to 10000 nM; at LXRβ [2], 100 to 1000 nM.
Turning to `O=S(=O)(c1ccc(Cl)cc1)n1c(-c2cccs2)c(-c2ccsc2C(F)F)c2ccccc21` [20/3], the EC50 in series [1] was 100 to 1000 nM; at LXRβ [2] it was below 100 nM.
`N#Cc1sccc1-c1c(-c2ccccc2)n(S(=O)(=O)c2ccc(OCC(=O)O)cc2)c2ccccc12` [Compound 27]: the EC50 in series [1] lay in the range of 1000 to 10000 nM; at LXRβ [2], 100 to 1000 nM.
For `N#Cc1sccc1-c1c(-c2cccs2)n(S(=O)(=O)c2ccc(CCC(=O)O)cc2)c2ccccc12` [23/1] the same measures were 1000 to 10000 nM and below 100 nM.
For `COc1ccc(S(=O)(=O)n2c(-c3ccc(CCC(=O)O)cc3)c(-c3ccsc3C#N)c3ccccc32)cc1` [15/6] the same measures were 1000 to 10000 nM and 100 to 1000 nM.
For `N#Cc1sccc1-c1c(-c2cccs2)n(S(=O)(=O)c2ccc(Cl)cc2)c2cc(CCC(=O)O)c(O)cc12` [Compound 17] the same measures were above 10000 nM and 1000 to 10000 nM.
Turning to `N#Cc1sccc1-c1c(-c2ccc(C3CC3C(=O)O)s2)n(S(=O)(=O)c2ccc(Cl)cc2)c2ccccc12` (stereo not drawn) [30/8], the EC50 in series [1] was 1000 to 10000 nM; at LXRβ [2], 100 to 1000 nM.
With `COc1ccc(S(=O)(=O)n2c(-c3ccccc3)c(-c3ccc4ncccc4c3C#N)c3ccccc32)cc1` [20/20], the EC50 is 1000 to 10000 nM in series [1] and 100 to 1000 nM at LXRβ [2].
For `Cc1ccc(S(=O)(=O)n2c(-c3cccc(-c4cccc(C(=O)O)c4)c3)c(-c3ccsc3C#N)c3ccccc32)cc1` [30/1] the same measures were 100 to 1000 nM and below 100 nM.
For `Cc1ccc(S(=O)(=O)n2c(-c3cccc(N4CC(C(=O)O)C4)c3)c(-c3ccsc3C#N)c3cc(Cl)ccc32)cc1` [3/44], the EC50 was 1000 to 10000 nM in series [1], below 100 nM at LXRβ [2] and below 100 nM at LXRβ [3].
In the case of `N#Cc1sccc1-c1c(-c2cccs2)n(S(=O)(=O)c2ccc(Cl)cc2)c2cc(OCCCCC(=O)O)ccc12` [15/5], the EC50 in series [1] was 1000 to 10000 nM; at LXRβ [2], below 100 nM.
In the case of `COc1ccc(S(=O)(=O)n2c(-c3ccccc3)c(C3=C(C#N)CCCC3)c3ccccc32)cc1` [20/16], the figures for the EC50 (in series [1]; at LXRβ [2]) were 1000 to 10000 nM and 100 to 1000 nM, respectively.
For `N#Cc1sccc1-c1c(-c2cccc(N3CC(C(=O)O)C3)n2)n(S(=O)(=O)c2ccc(Cl)cc2)c2ccccc12` [30/6] the same measures were 1000 to 10000 nM and 100 to 1000 nM.
For `N#Cc1sccc1-c1c(-c2cccs2)n(S(=O)(=O)c2cccc3ccccc23)c2ccccc12` [1/27], the figures for the EC50 (in series [1]; at LXRβ [2]) were 1000 to 10000 nM and below 100 nM, respectively.
For `N#Cc1sccc1-c1c(-c2cccc(N3CCC(C(=O)O)C3)c2)n(S(=O)(=O)c2ccc(Cl)cc2)c2ccccc12` (stereo not drawn) [30/11] the same measures were 100 to 1000 nM and below 100 nM.
Take `N#Cc1ccc(OCC(=O)O)cc1-c1c(-c2cccs2)n(S(=O)(=O)c2ccc(Cl)cc2)c2ccccc12` [21/1]: the EC50 (in series [1]; on LXRβ [2]) was 1000 to 10000 nM in each case.
Regarding `Cc1ccc(S(=O)(=O)n2c(-c3ccc(/C=C/C(=O)O)s3)c(-c3ccsc3C#N)c3ccccc32)cc1` [3/19], the EC50 in series [1] lay in the range of 1000 to 10000 nM; on LXRβ [2] it was 100 to 1000 nM.
In the case of `Cc1ccc(S(=O)(=O)n2c(-c3cccc(N4CC(C(=O)O)C4)c3)c(-c3ccsc3C#N)c3cc(F)c(Cl)cc32)cc1` [3/43], the values for the EC50 (in series [1]; on LXRβ [2]; at LXRβ [3]) were 1000 to 10000 nM, 100 to 1000 nM and below 100 nM, respectively.
With `N#Cc1cscc1-c1c(-c2cccs2)n(S(=O)(=O)c2ccc(Cl)cc2)c2ccccc12` [20/4], the EC50 in series [1] was 1000 to 10000 nM; on LXRβ [2], below 100 nM.
As for `Cc1ccc(S(=O)(=O)n2c(-c3ccsc3)c(-c3ccsc3C#N)c3ccccc32)cc1` [1/23], the values for the EC50 (in series [1]; at LXRβ [2]) were 100 to 1000 nM and below 100 nM, respectively.
For `N#Cc1sccc1-c1c(-c2ccccc2)n(S(=O)(=O)c2ccc(Cl)cc2)c2ccccc12` [Compound 26] the same measures were 100 to 1000 nM and below 100 nM.

For the origin of these results see US20260083704A1, “LXR MODULATORS WITH BICYCLIC CORE MOIETY FOR TREATING DYSLIPIDEMIAS” (OrsoBio, Inc., priority 2022, published 2026).
